One compound from patent US7498445B2, “Thiazole-based nitric oxide donors capable of releasing two or more nitric oxide molecules and uses thereof” (priority 2004, dated 2009) can be followed below.

The test system of experiment [1] is cyclic-GMP in isolated aorta of rats pre-treated in vivo. In words: Induction of in vivo nitrate tolerance: cGMP in aorta of rats infused for 16 hours. Also on record: species or system rat. Particulars: rats infused 200 μg/hour for 16 hours, aorta then exposed to 1 μM; in words. The protocol: For c-GMP levels and tolerance development, the rat's thoracic aorta was isolated after exposure to the tested compound in vivo, and measured as described above in the in vitro assays.
Male Sprague Dawley rats (220 to 250 grams) were housed under constant temperature and humidity conditions. Light was maintained at a 12/12 light dark cycle. Except for 12 hours before the experiment, when food fasting was initiated, all rats had free access to standard rat pellet diet and tap water. The animals were anesthetized by intraperitoneal injection of ketamine and xylazine combination (50 and 10 milligram per kilogram, respectively). […] The catheters were filled with normal saline solution containing 1000 IU/ml of heparin and plugged with a metal pin. Catheters were externalized to the back of the neck region and secured by a polyester felt disk.
After implantation, the rats were individually housed until they regained their preoperative weight and appeared healthy (3 to 4 days post-operation). At this time point (day 0), an osmotic mini-pump (Alza Corp., Palo Alto, Calif.) delivering constant volume (10 μl/hour) of vehicle or drug was connected to one of the intravenous catheters.
For inducing tolerance to the tested NO-donor according to the present invention, the animals received 200 μg/hour of the tested compound for 16 hours (short-term-induced tolerance). […]

For experiment [2], the system named is isolated rat aorta. In words: In vitro induction of tolerance and cross-tolerance: vasorelaxation of pre-exposed rat aortic rings. The format is cell-based. Particulars: rings pre-treated with epinephrine and then with the same compound (0.44 mM) versus control; in words. How it is done:
Aortic rings were prepared as described hereinabove, and were exposed to 0.44 mM GTN (vehicle was water:ethanol:propyleneglycol at proportional ratio of 1:1:1) for 1 hour before CCRC construction, to thereby induce tolerance to nitroglycerine. At the end of the tolerance induction period, rings were thrice washed with the path buffer (Krebs-bicrbonate) every 15 minutes for the following hour and then CCRC for vasorelaxation on GTN-induced tolerance rings were constructed for GTN (pretreated versus untreated rings, FIG. 15), in order to verify the ability to induce and measure GTN tolerance induction in vitro Attempted induction of tolerance to the NO-donating compounds of the present invention was performed under the same conditions as for GTN. Thus, in an exemplary experiment, rings were exposed to 0.44 mM solution of Pet-3 in the attempt to induce tolerance for Pet-3. CCRC were then measured for the vasorelaxing effect of Pet-3 on a group of rings which were pre-exposed to Pet-3 as to induce tolerance to Pet-3, and for an untreated control group. The above protocol was repeated with Pet-2, Pet-7, Pet-8, Pet-12, Pet-24, Pet-43, Pet-149 and Pet-152.
Cross-tolerance studies were conducted using the same technique described above for measuring vasorelaxation of aortic rings from rats. Two groups of aortic rings samples were pre-treated with GTN, then one group was measured for vasorelaxation by GTN and the second group for vasorelaxation by Pet-12, an exemplary NO-donor according to the present invention. For the opposite cross-tolerance studies, two groups of aortic rings samples were pre-treated with Pet-12, then one group was measured for vasorelaxation by GTN and the second group for vasorelaxation by Pet-12.

The subject of experiment [3] is c-GMP in slices of thoracic aorta of rats. In words: Cyclic-GMP measurement in aortic rat tissue (radioimmunoassay). The format is cell-based. The note with it: thoracic aorta of rats; in words. The protocol:
GTN (10^−6 M) was added to the chamber and, 1 minute after exposure to the drug, rings (usually 3-5) were taken, wrapped with aluminum foil and immediately frozen in liquid nitrogen for storage. Control sample group was treated with the vehicle solution only. At the time of analysis, rings were thawed, blotted over a dry gauzed and weighted. A known weight of tissue was homogenized in 2 ml ice-cold modified Hank's balanced salt solution containing (in gram/liter) NaCl 8; KCl 0.4; glucose 1; KH2PO4 0.06; Na2HPO4 0.047; Phenol red 0.017 and further containing 25 mM EDTA (disodium salt). The homogenate was centrifuged at 4000 g (force units) for 10 minutes at 2-4° C. and the supernatant was thereafter transferred into fresh pre-cooled test tube containing 1 ml of acetonitrile. The tubes were vortex mixed for a few seconds and subsequently centrifuged at 4000 g for 5 minutes at 2-4° C., to remove the precipitated protein. Each supernatant was transferred into a clean test tube and evaporated to dryness under a stream of nitrogen at 55° C. The dry residue was reconstituted with 10 volumes of Tris-EDTA buffer pH 7.5 (0.05 M Tris containing 4 mM EDTA). Aliquots of 100 μl of the reconstituted solution in duplicate were used for c-GMP measurements using Amersham RIA kit, as is described in Haj-Yehia & Benet [Pharmacology, 1995, 273, 1, pp. 94-100]. Standard curves were plotted with six concentrations (0, 0.5, 1, 2, 4 and 8 pmoles of c-GMP per tube).
The NO-tolerance effect of GTN and NO-donor compounds according to the present invention was measured by following the production of c-GMP in slices of thoracic aorta of rats. Thus, the production of c-GMP was measured as described in the methods section above for the reference NO-donor compound GTN, and for the NO-donors of the present invention Pet-2, Pet-3, Pet-7, Pet-8, Pet-10, Pet-12, Pet-24, Pet-59, Pet-147, Pet-149, Pet-152, Pet-154 and Pet-155.

In experiment [4] the test system is anesthetized hypertensive Sprague-Dawley male rats. In words: Hypotensive effects: mean arterial pressure after iv bolus in phenylephrine-treated rats. The format is in vivo, rat. Particulars: rats pre-treated with phenylephrine, in words. How it is done:
Mean arterial pressure (MAP) was monitored and determined during bolus infusion of Pet-2, Pet-3, Pet-7, Pet-8, Pet-12 and Pet-13. Briefly, polyethylene catheters (PE50) were inserted into the carotid artery and into the jugular vein of anesthetized hypertensive Sprague-Dawley male rats (200-300 grams). A blood pressure recorder was placed within the carotid artery. Phenylephrine (0.1 mg) was then injected and the mean arterial blood pressure (MABP) was monitored continuously until a stable baseline was reached. The hypotensive effects of intravenous (iv) bolus doses (0.1 mg of each tested compound) administered intravenously at the jugular vein in minimal volume of vehicle (0.2 ml per dose) were evaluated. Five minutes were allowed between each dose, during which the maximal decrease in MAP was recorded and a dose-response graph comparing the hypotensive effect of the compounds was constructed.

“Also recorded” adds a separate entry of the source.

`O=[N+]([O-])OCC(CO[N+](=O)[O-])O[N+](=O)[O-]` [GTN, glyceryl trinitrate, reference compound]: in experiment [1], the “level of cGMP following a repeated treatment in vivo (tolerance induction)” value is reported as “tolerance inducing effect; also recorded: decreased”. Also, the “tolerance induction in vitro” value in experiment [2] is listed as “tolerance induced by treatment with GTN”. In addition, the “c-GMP level following a repeated treatment” value in experiment [3] was “significantly reduced”. For the same compound, the “hypotensive effect on MAP following successive administrations” value in experiment [4] is given as “attenuation in its effect on MAP”.
